Values quoted from earlier work as cited in patent US20240350480A1, “STABLE PHARMACEUTICAL COMPOSITION OF METHYLNALTREXONE FOR AN ORAL ADMINISTRATION” (Lupin Limited, priority 2023, published 2024).

Conditions: oral administration

C[N+]1(CC2CC2)CC[C@]23c4c5ccc(O)c4O[C@H]2C(=O)CC[C@@]3(O)[C@H]1C5.[Br-] (stereo partly shown) [methylnaltrexone]
Methylnaltrexone absorbed into the bloodstream: less than 5%
